Activity calls are given as the source filed them. Unless noted, no cut-off for these calls is given here.
Tests used:
Format in all cases: functional
INS1 = experiment: caspase-3/7 inhibition in cytokine-treated INS-1E, dose response, beta-cell apoptosis inhibitor project, cell-based, caspase luminescence, dry powder (AID 488848); settings: Rattus norvegicus
Hexokinase-1 = biological target: T1, Hexokinase-1 (Homo sapiens, UniProt P19367); experiment: SAR analysis of small molecule inhibitors of hexokinase domain containing I (HKDC1) in the hexokinase 1 selectivity assay. [Related pubchem assays (depositor defined):AID493160, AID493190]
T1 sequence (P19367 whole entry): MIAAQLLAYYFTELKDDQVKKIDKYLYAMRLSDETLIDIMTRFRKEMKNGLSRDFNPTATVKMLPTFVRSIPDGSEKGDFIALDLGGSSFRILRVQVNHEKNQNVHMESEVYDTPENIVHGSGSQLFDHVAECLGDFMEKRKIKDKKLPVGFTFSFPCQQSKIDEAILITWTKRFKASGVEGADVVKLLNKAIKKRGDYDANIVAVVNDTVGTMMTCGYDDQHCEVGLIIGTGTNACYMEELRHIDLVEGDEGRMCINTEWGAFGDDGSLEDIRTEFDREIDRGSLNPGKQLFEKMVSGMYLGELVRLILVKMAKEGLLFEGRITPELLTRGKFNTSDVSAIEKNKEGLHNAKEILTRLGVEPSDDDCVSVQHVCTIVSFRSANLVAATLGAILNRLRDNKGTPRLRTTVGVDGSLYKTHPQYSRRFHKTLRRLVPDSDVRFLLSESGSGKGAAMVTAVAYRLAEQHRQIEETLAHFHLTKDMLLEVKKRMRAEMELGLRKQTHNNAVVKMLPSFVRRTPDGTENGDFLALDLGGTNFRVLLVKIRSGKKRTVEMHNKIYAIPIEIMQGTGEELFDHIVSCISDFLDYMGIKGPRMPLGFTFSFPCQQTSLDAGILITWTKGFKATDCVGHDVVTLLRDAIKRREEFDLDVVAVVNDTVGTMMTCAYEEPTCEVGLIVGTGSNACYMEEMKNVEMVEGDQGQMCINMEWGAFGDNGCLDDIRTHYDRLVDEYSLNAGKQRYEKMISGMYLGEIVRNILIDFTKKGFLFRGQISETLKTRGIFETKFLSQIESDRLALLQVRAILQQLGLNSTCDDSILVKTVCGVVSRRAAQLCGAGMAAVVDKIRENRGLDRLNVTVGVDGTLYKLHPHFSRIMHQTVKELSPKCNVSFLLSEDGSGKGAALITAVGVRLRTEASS

Hexokinase HKDC1 = biological target: T2, Hexokinase HKDC1 (Homo sapiens, UniProt Q2TB90); experiment: SAR analysis of small molecule inhibitors of hexokinase domain containing I (HKDC1). [Related pubchem assays (depositor defined):AID493160, AID493190]
T2 sequence (Q2TB90 whole entry): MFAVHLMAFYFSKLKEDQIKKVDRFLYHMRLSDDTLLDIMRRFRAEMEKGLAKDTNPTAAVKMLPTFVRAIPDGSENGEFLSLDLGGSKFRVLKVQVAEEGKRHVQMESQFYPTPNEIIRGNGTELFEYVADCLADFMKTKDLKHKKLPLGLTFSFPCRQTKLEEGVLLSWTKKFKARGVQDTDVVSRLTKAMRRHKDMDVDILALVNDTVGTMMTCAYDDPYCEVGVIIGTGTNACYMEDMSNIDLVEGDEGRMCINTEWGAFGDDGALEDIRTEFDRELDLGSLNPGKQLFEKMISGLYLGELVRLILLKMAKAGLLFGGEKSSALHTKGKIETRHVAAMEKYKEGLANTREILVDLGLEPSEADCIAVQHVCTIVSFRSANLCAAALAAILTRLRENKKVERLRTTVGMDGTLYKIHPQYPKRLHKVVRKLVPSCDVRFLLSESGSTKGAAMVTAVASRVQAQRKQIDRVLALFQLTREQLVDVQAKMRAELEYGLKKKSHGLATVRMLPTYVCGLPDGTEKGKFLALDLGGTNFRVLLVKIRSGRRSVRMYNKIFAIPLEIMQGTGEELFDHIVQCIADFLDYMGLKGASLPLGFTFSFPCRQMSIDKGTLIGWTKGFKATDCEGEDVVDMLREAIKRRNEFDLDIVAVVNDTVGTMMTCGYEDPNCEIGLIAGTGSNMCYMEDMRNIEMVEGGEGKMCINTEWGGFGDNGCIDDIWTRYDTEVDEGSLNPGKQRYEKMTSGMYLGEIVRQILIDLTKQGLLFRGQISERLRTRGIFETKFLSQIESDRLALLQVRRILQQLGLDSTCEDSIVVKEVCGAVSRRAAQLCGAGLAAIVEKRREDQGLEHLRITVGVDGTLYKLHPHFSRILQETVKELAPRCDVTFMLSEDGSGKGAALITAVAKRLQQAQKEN

[1] = BHK-21 cell cytotoxicity, cytotoxicity control for flavivirus guanylyltransferase probe project, secondary screen (AID 624078)
Phospholipase D2 [2] = biological target: T3, Phospholipase D2 (Homo sapiens, UniProt O14939); experiment: PLD2 purified enzyme concentration response. [Related pubchem assays (depositor defined):AID588854]
Phospholipase D2 [3] = biological target: T3, Phospholipase D2; experiment: PLD2 inhibitor potency in cells, dose response (AID 602147);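 note: cellular assay in HEK293 cells overexpressing GFP-tagged PLD2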
Phospholipase D1 = biological target: T4, Phospholipase D1 (Homo sapiens, UniProt Q13393); experiment: PLD1 purified enzyme concentration response. [Related pubchem assays (depositor defined):AID588854]
T4 sequence (Q13393 whole entry): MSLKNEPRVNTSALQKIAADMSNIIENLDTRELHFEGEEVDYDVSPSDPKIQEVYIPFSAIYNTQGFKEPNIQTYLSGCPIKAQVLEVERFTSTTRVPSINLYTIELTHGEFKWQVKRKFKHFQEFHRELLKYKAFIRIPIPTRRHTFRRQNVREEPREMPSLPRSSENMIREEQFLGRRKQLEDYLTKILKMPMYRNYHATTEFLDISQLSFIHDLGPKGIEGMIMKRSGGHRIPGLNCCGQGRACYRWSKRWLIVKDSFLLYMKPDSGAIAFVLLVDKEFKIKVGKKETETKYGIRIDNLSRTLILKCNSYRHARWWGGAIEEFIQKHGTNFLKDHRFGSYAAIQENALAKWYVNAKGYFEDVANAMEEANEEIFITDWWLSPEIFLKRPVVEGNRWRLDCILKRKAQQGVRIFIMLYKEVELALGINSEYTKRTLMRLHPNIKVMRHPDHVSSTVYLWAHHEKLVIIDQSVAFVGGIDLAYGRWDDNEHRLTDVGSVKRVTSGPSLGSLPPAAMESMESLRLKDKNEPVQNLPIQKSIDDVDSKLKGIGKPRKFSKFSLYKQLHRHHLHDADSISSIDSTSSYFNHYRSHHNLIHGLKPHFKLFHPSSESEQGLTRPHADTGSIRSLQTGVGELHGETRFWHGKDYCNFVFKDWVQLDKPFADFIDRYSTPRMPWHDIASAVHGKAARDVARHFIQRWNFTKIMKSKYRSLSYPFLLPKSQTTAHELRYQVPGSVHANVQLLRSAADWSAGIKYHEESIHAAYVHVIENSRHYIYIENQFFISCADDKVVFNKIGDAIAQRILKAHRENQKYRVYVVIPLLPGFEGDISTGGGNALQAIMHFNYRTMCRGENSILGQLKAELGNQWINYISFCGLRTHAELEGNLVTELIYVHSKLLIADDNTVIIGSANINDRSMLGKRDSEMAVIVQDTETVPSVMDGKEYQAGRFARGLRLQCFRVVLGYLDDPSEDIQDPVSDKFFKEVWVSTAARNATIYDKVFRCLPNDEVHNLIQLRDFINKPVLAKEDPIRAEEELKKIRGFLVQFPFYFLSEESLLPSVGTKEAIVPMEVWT

NIH3T3 = experiment: cytotoxicity in NIH-3T3 fibroblasts, dose response, cytotoxicity control for antifungal drug resistance project, cell-based, Alamar Blue, fluconazole, dry powder (AID 488809); settings: Mus musculus
[4] = THP-1 cell cytotoxicity, cytotoxicity control, set 6 (AID 602433); settings: Mycobacterium tuberculosis

T3 sequence (O14939 whole entry): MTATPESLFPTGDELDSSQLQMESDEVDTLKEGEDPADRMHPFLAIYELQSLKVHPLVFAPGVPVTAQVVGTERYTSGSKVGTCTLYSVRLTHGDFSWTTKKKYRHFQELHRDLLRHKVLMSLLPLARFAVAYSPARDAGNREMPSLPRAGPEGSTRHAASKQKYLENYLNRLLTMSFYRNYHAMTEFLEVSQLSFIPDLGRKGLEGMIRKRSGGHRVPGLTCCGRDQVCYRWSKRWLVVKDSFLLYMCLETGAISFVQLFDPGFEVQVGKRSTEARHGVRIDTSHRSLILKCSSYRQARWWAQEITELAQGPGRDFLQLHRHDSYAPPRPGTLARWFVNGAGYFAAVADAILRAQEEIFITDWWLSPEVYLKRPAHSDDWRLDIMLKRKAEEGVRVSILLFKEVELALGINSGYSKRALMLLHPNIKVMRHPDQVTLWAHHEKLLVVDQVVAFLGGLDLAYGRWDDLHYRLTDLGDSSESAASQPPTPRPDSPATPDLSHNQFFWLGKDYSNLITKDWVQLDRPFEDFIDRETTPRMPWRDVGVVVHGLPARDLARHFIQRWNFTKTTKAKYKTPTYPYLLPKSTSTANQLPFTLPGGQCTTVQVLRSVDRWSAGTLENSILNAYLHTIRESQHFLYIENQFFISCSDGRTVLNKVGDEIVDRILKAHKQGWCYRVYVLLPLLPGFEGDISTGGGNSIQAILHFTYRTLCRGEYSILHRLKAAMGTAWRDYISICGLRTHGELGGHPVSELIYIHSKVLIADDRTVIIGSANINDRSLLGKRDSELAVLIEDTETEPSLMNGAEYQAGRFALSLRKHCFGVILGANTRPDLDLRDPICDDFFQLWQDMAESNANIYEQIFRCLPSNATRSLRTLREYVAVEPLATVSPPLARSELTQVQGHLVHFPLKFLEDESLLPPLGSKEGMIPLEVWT

COc1ccc(S(=O)(=O)N(C)C[C@@H]2Oc3c(NC(=O)Nc4cccc(-c5ncccn5)c4)cccc3C(=O)N([C@@H](C)CO)C[C@H]2C)cc1
AC50 (INS1): 98 µM (active)

O=C(O)CSc1cc(NS(=O)(=O)c2ccc(F)cc2)c2ccccc2c1O
IC50 (Hexokinase-1): 40.3 µM (inactive)
IC50 (Hexokinase HKDC1): 5.02 µM (active)
CC50 [1]: 6.86 µM (active)

O=C(NCCN1CCC2(CC1)C(=O)NCN2c1ccc(F)c(F)c1)c1cnc2ccccc2c1
IC50 (Phospholipase D2 [2]): 0.2 µM (active)
IC50 (Phospholipase D2 [3]): 0.069 µM (active)
IC50 (Phospholipase D1): 5.48 µM (active)

O=S(=O)(c1ccc(Cl)cc1)N1CCN(c2ccnc3cc(Cl)ccc23)CC1
AC50 (NIH3T3): 27.7 µM (active)

CC(C)CCNC(=O)CSc1nc2c(c(=O)[nH]1)CCCC2
CC50 [4]: > 100 µM (inconclusive)
